Measurements from US20120165325A1, “Stable forms of N-(2,6-Dimethyl-4-morpholin-4-yl-phenyl)-3,3-dimethyl-butyramide” (H. Lundbeck A/S, priority 2009, published 2012).

Key:
[1] = system: DA neurons in the VTA; assay: Electrophysiology: spontaneous DA cell firing in the VTA of anaesthetised rats; assay type: in vivo, rat; settings: mean ± SEM
Method: Subjects. Male Wistar rats (Harlan, The Netherlands) weighing 270-340 g were used. The animals were housed under a 12-hr light/dark cycle under controlled conditions for regular in-door temperature (21±2° C.) and humidity (55±5%) with food and tap water available ad libitum.
Experimental procedure. The rats were anaesthetised with an intraperitoneal injection of chloral hydrate (400 mg/kg). A femoral vein catheter was then inserted for supplementary anaesthetic injections (100 mg/kg) and drug administration. Animals were then mounted in a stereotaxic frame, the skull was exposed, and a hole (0.5×0.5 cm) was drilled above the ventral tegmental area. Extracellular single-cell recordings were performed using electrodes pulled from glass capillaries and filled with 2% Pontamine Sky Blue in 2 M NaCl. The tip of the electrode was broken under microscopic control, yielding an impedance of 2.0-8.0 MΩ a 135 Hz. The electrode was then lowered into the brain, using a hydraulic microdrive, aimed at the following coordinates: 5.5-5.0 mm posterior to Bregma; 0.5-0.9 mm lateral to the midline. Extracellular action potentials were amplified, discriminated and monitored on an oscilloscope and an audiomonitor. Discriminated spikes were collected and analysed using Spike 2 software (Cambridge Electronic Design Ltd., Cambridge, UK) on a PC-based system connected to a CED 1401 interface unit (Cambridge Electronic Design Ltd.). Presumed dopaminergic neurons were typically found 7.0-8.5 mm beneath the brain surface and were characterised by (1) a slow and irregular firing pattern (0.5-10 Hz), and (2) triphasic action potentials with a predominant positive component, a negative component followed by a minor positive component, with an overall duration >2.5 ms (Bunney et al. 1973, J. Pharmacol. Exp. They., 185, 560-571.).
Administration of compounds. Once a stable basal firing rate was obtained, cumulated doses of N-(2,6-Dimethyl-4-morpholin-4-yl-phenyl)-3,3-dimethyl-butyramide ([…]; volume range 0.12-1.0 ml/kg) were administered i.v., each injection being separated by at least 3 min. These i.v. doses match the s.c. dose range of 0-10 mg/kg.
Statistical analysis. Drug effects were assessed by statistical comparison of the mean firing rate calculated from the 2-3 min period immediately before the first drug administration (baseline) to the mean firing rate calculated from at least 60 s at the maximal drug effect. Data were analysed statistically by a one-way ANOVA followed by Student-Newman-Keuls posthoc test. A p-value less than 0.05 was considered significant.

[2] = system: Male Wistar rats; assay: Conditioned avoidance response; assay type: in vivo, rat; settings: for % inhibition of avoidance (Std. dev.) Relative to baseline: rats
Method: Subjects. Male Wistar rats (Taconic, Denmark) weighing 150 g at the beginning of the study were used. The rats were housed in pairs and maintained on a 12 h light/dark cycle (lights on 06:00). The animals were fed once daily (approx. 6 pellets/rat) in order to keep the rats at 80% of their free-feeding weight. Water was available ad libitum. Temperature (21±1° C.) and relative humidity (55±5%) were automatically controlled.
Experimental procedure. Conditioned avoidance testing was conducted using four automated shuttle-boxes (ENV-010M, MED-Associates) each placed in a sound-attenuated chamber. Each box was divided into two compartments by a partition with an opening. The position of the animal and crossings from one compartment to the other were detected by two photocells placed on either side of the dividing wall. Upon presentation of the conditioned stimuli (CS), tone and light, the animals have 10 s to cross to the other compartment of the shuttle-box in order to turn the CS off (end the trial) and avoid the appearance of the unconditioned stimulus (UCS). If the rat remained in the same compartment for more than 10 s, the UCS is presented as 0.5 mA scrambled foot-shocks until escape was performed or 10 s in maximal duration. The following behavioural variables were evaluated: avoidance (response to CS within 10 s); escape (reponse to CS+UCS); escape failures (failure to respond); intertrial crosses and locomotor activity. The rats were habituated to the shuttle-box 3 min before each test session. During training each test session consists of 30 trials with intertrial intervals varying randomly between 20 s and 30 s. Training was carried until the rats display an avoidance of 80% or more, on 3 consecutive days. […]
Statistical analyses. The effects of compounds on avoidance and escape failure behaviours were statistically evaluated by means of a two-way repeated measures ANOVA followed by post hoc comparisons (Student-Newman-Keuls Method) when appropriate. […]

[3] = system: Male NMRI mice; assay: Forced swim test; assay type: in vivo, mouse; settings: 30 min before test, last 3 min of 6 min swim, vehicle = 100
Method: Subjects. Male NMRI mice (Charles River) weighing 23-25 g were used. The mice were kept 8 mice pr cage in a 12-hr light/dark cycle under controlled conditions for regular in-door temperature (21±2° C.) and humidity (55±5%) with food and tap water available ad libitum. 8 mice were used pr experimental group.
Experimental procedure. The mice were placed in 2000 ml beaker containing 1200 ml of tempered water (25° C.) and left to swim for 6 min. The performance of the mice was video recorded, digitalized and analysed by means of a digital analysis system (Bioobserve). The time spent immobile for the last 3 min. of the test session was quantified for each mouse.
Treatment. 30 min. before the test, mice were treated s.c. with N-(2,6-dimethyl-4-morpholin-4-yl-phenyl)-3,3-dimethyl-butyramide or vehicle (10-%-2-OH-propyl-cyclodextrin, 10 ml/kg). In addition as positive control, imipramine-HCl (40 mg/kg) and a saline control (10 ml/kg) was included.
Analyses. The time spent immobile was statistically compared across the experimental groups against the relevant control group by means of one-way analysis of variance. A post-hoc test (Student-Newman-Keuls) was employed when appropriate. P-levels <0.05 were considered significant.

Cc1cc(N2CCOCC2)cc(C)c1NC(=O)CC(C)(C)C [N-(2,6-dimethyl-4-morpholin-4-yl-phenyl)-3,3-dimethyl-butyramide]
Spontaneous DA cell firing rate as a percentage of baseline firing rate ([1]; cumulated dose 0.03 mg/kg i.v.): 89.8 ± 4.5 (5) percentage of baseline firing rate
Spontaneous DA cell firing rate as a percentage of baseline firing rate ([1]; cumulated dose 0.1 mg/kg i.v.): 81.0 ± 4.0 (5) percentage of baseline firing rate
Spontaneous DA cell firing rate as a percentage of baseline firing rate ([1]; cumulated dose 0.25 mg/kg i.v.): 74.1 ± 6.3 (4) percentage of baseline firing rate
Spontaneous DA cell firing rate as a percentage of baseline firing rate ([1]; cumulated dose 0.5 mg/kg i.v.): 68.1 ± 6.0 (4) percentage of baseline firing rate
Spontaneous DA cell firing rate as a percentage of baseline firing rate ([1]; cumulated dose 1.0 mg/kg i.v.): 57.1 ± 7.9 (3) percentage of baseline firing rate
% inhibition of avoidance (Std. dev.) Relative to baseline ([2]; 2.5 mg/kg s.c. 30 min before the test): 1 (14) %
% inhibition of avoidance (Std. dev.) Relative to baseline ([2]; 5 mg/kg s.c. 30 min before the test): 71%
Escape failures (effect on motor performance) ([2]; 2.5 and 5 mg/kg s.c., data not shown): None of the tested doses caused any incidences of escape failures
Immobility in % (±S.D.) ([3]; dose 1.3 mg/kg): 102%
Immobility in % (±S.D.) ([3]; dose 2.5 mg/kg): 96.7%
Immobility in % (±S.D.) ([3]; dose 5.0 mg/kg): 82.3%
